Experiments:
[1] = system: Xenopus Opn4x C94^2.61F/T188^ECL2S/A269^6.52S mutant; test: GsX GloSensor assay with Gsα/q11; format: cell-based; conditions: 16.7 μM AA92593, COS-1 cells
From the text: (§1) The GsX GloSensor assay using Gsα/q11 of Xenopus Opn4x and chicken Opn4-1 detected the light-dependent Gq activation in both non-mammalian-type melanopsins (Fig. 6, A and D). […] The ineffectiveness of AA92593 is consistent with the fact that Phe-94^2.61, Ser-188^ECL2, and Ser-269^6.52 are not conserved among non-mammalian-type melanopsins (Figs. 2A, S2 and S3). If these three residues are important for the antagonistic effect against melanopsins, the introduction of Phe-94^2.61/Ser-188^ECL2/Ser-269^6.52 into the non-mammalian-type melanopsins would make them susceptible to AA92593. As expected, the substitutions of C94^2.61F/T188S^ECL2/A269^6.52S in Xenopus Opn4x and chicken Opn4-1 increased their sensitivity to AA92593 by ∼49% and ∼22%, respectively (Fig. 6, B and E, G–I). […]
(§2) For GloSensor assay, opsins, GloSensor assay sensor (coded by pGlo-22F), and NanoBiT-tagged G proteins were transiently expressed in COS-1 cells (kindly provided from Dr David Farrens, Oregon Health and Science University) using PEI as described previously ([24], [52]). […] For GFP-fluorescence microscopy, a 35-mm cell culture dish (IWAKI) was transfected with 2 μg melanopsin-GFP plasmid and 8 μg PEI in 400 μl Opti-mem and 1.2 ml D-MEM. […]

[2] = system: chicken Opn4-1 C94^2.61F/T188^ECL2S/A269^6.52S mutant; test: GsX GloSensor assay with Gsα/q11; format: cell-based; conditions: 16.7 μM AA92593, COS-1 cells
From the text: as §1, §2

Question: `COc1ccc(S(=O)(=O)N2CCCCC2)cc1C` [AA92593] was tested. Which “increase in sensitivity to AA92593 vs WT” value [1] did it give?
Answer: The value was ~49%.

Question: What about the “increase in sensitivity to AA92593 vs WT” value [2] of the same compound?
Answer: Its value is ~22%.
